SMILES | logP
CCNC(=O)c1ccsc1 | 1.18
CCOC(=O)c1ccsc1 | 2.32
COc1cccs1 | 2.13
Clc1ccsc1 | 2.55
CNC(=O)c1cccs1 | 0.84
COC(=O)c1cccs1 | 1.83
CCCOC(=O)c1cccs1 | 3.01
CCCNC(=O)c1ccsc1 | 1.65
CCCNC(=O)c1cccs1 | 1.68
CNC(=O)c1ccsc1 | 0.81
CCCOC(=O)c1ccsc1 | 3.03
CCNC(=O)c1cccs1 | 1.18

— the OPERA property sets (Mansouri et al. 2018)
